Patent US5716929A (Vertex Pharmaceuticals, Inc., priority 1995, dated 1998)

Assays:
[1] = system: mature IL-1β, Human Peripheral Blood Mononuclear Cells (PBMC); test: Cell assay: IL-1β assay with human PBMC or enriched adherent mononuclear cells; format: cell-based; conditions: LPS-stimulated cells, mature IL-1β by ELISA
Text: IL-1β Assay with a Mixed Population of Human Peripheral Blood Mononuclear Cells (PBMC) or Enriched Adherent Mononuclear Cells
Processing of pre-IL-1β by ICE can be measured in cell culture using a variety of cell sources. Human PBMC obtained from healthy donors provides a mixed population of lymphocyte subtypes and mononuclear cells that produce a spectrum of interleukins and cytokines in response to many classes of physiological stimulators. Adherent mononuclear cells from PBMC provides an enriched source of normal monocytes for selective studies of cytokine production by activated cells.
An initial dilution series of test compound in DMSO or ethanol is prepared, with a subsequent dilution into RPMI-10% FBS media (containing 2 mM L-glutamine, 10 mM HEPES, 50 U and 50 ug/ml pen/strep) respectively to yield drugs at 4× the final test concentration containing 0.4% DMSO or 0.4% ethanol. The final concentration of DMSO is 0.1% for all drug dilutions. A concentration titration which brackets the apparent Ki for a test compound determined in an ICE inhibition assay is generally used for the primary compound screen.
We generally test 5-6 compound dilutions and have performed the cellular component of the assay in duplicate, with duplicate ELISA determinations on each cell culture supernatant.
Buffy coat cells isolated from one pint human blood (yielding 40-45 ml final volume plasma plus cells) are diluted with media to 80 ml and LeukoPREP separation tubes (Becton Dickinson) are each overlaid with 10 ml of cell suspension. After 15 min centrifugation at 1500-1800×g, the plasma/media layer is aspirated and then the mononuclear cell layer is collected with a Pasteur pipette and transferred to a 15 ml conical centrifuge tube (Corning). Media is added to bring the volume to 15 ml, gently mix the cells by inversion and centrifuge at 300×g for 15 min. Resuspend the PBMC pellet in a small volume of media, count cells and adjust to 6×10^6 cells/ml.
For the cellular assay, add 1.0 ml of the cell suspension to each well of a 24-well flat bottom tissue culture plate (Corning), 0.5 ml test compound dilution and 0.5 ml LPS solution (Sigma #L-3012; 20 ng/ml solution prepared in complete RPMI media; final LPS concentration 5 ng/ml). The 0.5 ml additions of test compound and LPS are usually sufficient to mix the contents of the wells. Three control mixtures are run per experiment, with either LPS alone, solvent vehicle control, and/or additional media to adjust the final culture volume to 2.0 ml. The cell cultures are incubated for 16-18 hr at 37° C. in the presence of 5% CO2.
At the end of the incubation period, cells are harvested and transferred to 15 ml conical centrifuge tubes. After centrifugation for 10 min at 200×g, supernatants are harvested and transferred to 1.5 ml Eppendorf tubes. It may be noted that the cell pellet may be utilized for a biochemical evaluation of pre-IL-1β and/or mature IL-1β content in cytosol extracts by western blotting or ELISA with pre-IL-1β specific antisera.
PBMC are isolated and prepared as described above. Media (1.0 ml) is first added to wells followed by 0.5 ml of the PBMC suspension. After a one hour incubation, plates are gently shaken and nonadherent cells aspirated from each well. Wells are then gently washed three times with 1.0 ml of media and final resuspended in 1.0 ml media. The enrichment for adherent cells generally yields 2.5-3.0×10^5 cells per well. […]

[2] = molecular target: T1, interleukin-1β converting enzyme (ICE) (Homo sapiens, UniProt P29466); test: Enzyme assay with UV-visible substrate (Succinyl-Tyr-Val-Ala-Asp-pNitroanilide); format: biochemical
T1 sequence (P29466 120-297 limits assumed): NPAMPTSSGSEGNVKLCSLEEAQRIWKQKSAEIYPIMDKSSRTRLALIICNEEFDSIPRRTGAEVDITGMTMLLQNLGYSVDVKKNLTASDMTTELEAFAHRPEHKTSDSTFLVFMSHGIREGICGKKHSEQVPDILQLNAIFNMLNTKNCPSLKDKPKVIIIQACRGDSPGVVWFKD
T1 sequence (P29466 317-404 limits assumed): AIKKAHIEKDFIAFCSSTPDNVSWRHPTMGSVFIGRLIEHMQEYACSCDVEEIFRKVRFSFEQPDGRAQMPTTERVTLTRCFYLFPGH
Experimental: 1. Enzyme assay with UV-visible substrate
This assay is run using an Succinyl-Tyr-Val-Ala-Asp-pNitroanilide substrate (SEQ ID NO: 1). Synthesis of analogous substrates is described by L. A. Reiter (Int. J. Peptide Protein Res. 43, 87-96 (1994)). The assay mixture contains: […]
The visible ICE assay is run in a 96-well microtiter plate. Buffer, ICE and DMSO (if inhibitor is present) are added to the wells in the order listed. The components are left to incubate at room temperature for 15 minutes starting at the time that all components are present in all wells. The microtiter plate reader is set to incubate at 37° C. After the 15 minute incubation, substrate is added directly to the wells and the reaction is monitored by following the release of the chromophore (pNA) at 405-603 nm at 37° C. for 20 minutes. A linear fit of the data is performed and the rate is calculated in mOD/min. DMSO is only present during experiments involving inhibitors, buffer is used to make up the volume to 100 μl in the other experiments.
(§1) For determination of enzyme inhibition constants (Ki) or the mode of inhibition (competitive, uncompetitive or noncompetitive), the rate data determined in the enzyme assays at varying inhibitor concentrations are computer-fit to standard enzyme kinetic equations (see I. H. Segel, Enzyme Kinetics, Wiley-Interscience, 1975).

[3] = molecular target: T1, interleukin-1β converting enzyme (ICE); test: Enzyme assay with fluorescent substrate (Acetyl-Tyr-Val-Ala-Asp-AMC); format: biochemical; conditions: Example 2 table, read-out: Fluorescence Ki
Experimental: 2. Enzyme Assay with Fluorescent Substrate
This assay is run essentially according to Thornberry et al. (Nature 356: 768-774 (1992)), using substrate 17 referenced in that article. The substrate is: Acetyl-Tyr-Val-Ala-Asp-amino-4-methylcoumarin (AMC) (SEQ ID NO: 2). The following components are mixed: […]
The assay is run in a 96 well microtiter plate. Buffer and ICE are added to the wells. The components are left to incubate at 37° C. for 15 minutes in a temperature-controlled wellplate. After the 15 minute incubation, the reaction is started by adding substrate directly to the wells and the reaction is monitored @37° C. for 30 minutes by following the release of the AMC fluorophore using an excitation wavelength for 380 nm and an emission wavelength of 460 nm. A linear fit of the data for each well is performed and a rate is determined in fluorescence units per second.
as §1

[4] = Homo sapiens, PBMC, Example 2 table

Compound | IC50 [1, 4] | Ki ([2]; Example 2 table) | Ki [3] | IC50 ([1]; Example 2 table) | also measured
CC(=O)N[C@@H](Cc1ccc(O)cc1)C(=O)N[C@H](C(=O)N1CC(O)C[C@H]1C(=O)NC(C=O)CC(=O)O)C(C)C (stereo partly shown) [J, N-[N-Acetyl-tyrosinyl-valinyl-(4-hydroxyprolinyl)]-3-amino-4-oxobutanoicacid] | 5000 to 7000 nM |  |  |  | 
COc1cccc2nc(C(=O)[C@H](CC(=O)O)NC(=O)[C@@H]3C[C@H](Oc4ccccc4)CN3C(=O)[C@@H](NC(C)=O)C(C)C)oc12 [Compound 86, N-Acetyl-(S)-valinyl-(4-(S)-phenoxy)prolinyl-3(S)-amino-4-(7-methoxybenzoxazol-2-yl)-4-oxo-butanoic acid] |  |  |  |  | Ki ([2]; Example 6 table): 175 nM; IC50 ([1]; Example 6 table): 4000 nM
CC(=O)N[C@@H](Cc1ccc(O)cc1)C(=O)N[C@H](C(=O)N1CC(OCc2ccccc2)C[C@H]1C(=O)NC(C=O)CC(=O)O)C(C)C (stereo partly shown) [Compound K, N-[N-Acetyl-tyrosinyl-valinyl-(4-benzyloxy)prolinyl]-3-amino-4-oxobutanoicacid] |  | 10 nM | 2 nM | 2000 to 11000 nM | 
N-(N-Acetyl-tyrosinyl-valinyl-pipecolyl)-3-amino-4-oxobutanoic acid [H] |  | 23 nM | 4.7 nM | 6000 to 11000 nM | 
CC(=O)N[C@@H](Cc1ccc(O)cc1)C(=O)N[C@H](C(=O)N1CC(Oc2ccccc2)C[C@H]1C(=O)NC(C=O)CC(=O)O)C(C)C (stereo partly shown) [I, N-(N-Acetyl-tyrosinyl-valinyl-(4-phenoxyprolinyl))-3-amino-4-oxobutanoicacid] | 2600 nM |  |  |  | 
